US10004732B2 (Novartis AG, priority 2014, dated 2018)
Where two headings read alike, the source gives them in different places.

Experiments:
[1] = Microsomal clearance assay (M); conditions: intrinsic clearance in rat liver microsomes
Protocol: The experiments were performed in 96-well glass plates at 37° C. on an automated Tecan EVO platform. Test compounds at a concentration of 10 mM in pure DMSO were diluted 1:1000 in water to 10 μM. […] Reactions were initiated by the addition of 150 μL of a cofactor solution containing 2 mM NADPH.

[2] = target: T1, PI 3-kinase gamma (Homo sapiens, UniProt P48736); assay: Cellular U937 AKT assay K1 (MSD); type: cell-based; conditions: U937 cells, K1 format; read-out: Assay K1 PI3Kγ IC50
[3] = target: T1, PI 3-kinase gamma; assay: TR-FRET Adapta assay, assay E; type: biochemical; conditions: read-out: Assay E PI3Kγ IC50
[4] = target: mTOR (Homo sapiens, UniProt P42345); assay: Lanthascreen kinase binding assay, assay G; conditions: read-out: Assay G mTOR IC50
Protocol: Lanthascreen™ Kinase Binding Assay for mTOR (G)
Binding of an inhibitor to the kinase competes for binding with the tracer, resulting in a loss of FRET.
50 nL of compound dilutions were dispensed onto white 384-well small volume polystyrene plate.

[5] = target: T2, PI 3-kinase delta (Homo sapiens, UniProt O00329); assay: TR-FRET Adapta assay, assay F; conditions: read-out: Assay F PI3Kδ IC50
[6] = target: T3, PI 3-kinase alpha (Homo sapiens, UniProt P42336); assay: Kinase Glo Luminescent Kinase Assay (Kglo), assay A; type: biochemical; conditions: read-out: Assay A PI3Kα IC50
Target sequence in this assay (P42336 whole entry): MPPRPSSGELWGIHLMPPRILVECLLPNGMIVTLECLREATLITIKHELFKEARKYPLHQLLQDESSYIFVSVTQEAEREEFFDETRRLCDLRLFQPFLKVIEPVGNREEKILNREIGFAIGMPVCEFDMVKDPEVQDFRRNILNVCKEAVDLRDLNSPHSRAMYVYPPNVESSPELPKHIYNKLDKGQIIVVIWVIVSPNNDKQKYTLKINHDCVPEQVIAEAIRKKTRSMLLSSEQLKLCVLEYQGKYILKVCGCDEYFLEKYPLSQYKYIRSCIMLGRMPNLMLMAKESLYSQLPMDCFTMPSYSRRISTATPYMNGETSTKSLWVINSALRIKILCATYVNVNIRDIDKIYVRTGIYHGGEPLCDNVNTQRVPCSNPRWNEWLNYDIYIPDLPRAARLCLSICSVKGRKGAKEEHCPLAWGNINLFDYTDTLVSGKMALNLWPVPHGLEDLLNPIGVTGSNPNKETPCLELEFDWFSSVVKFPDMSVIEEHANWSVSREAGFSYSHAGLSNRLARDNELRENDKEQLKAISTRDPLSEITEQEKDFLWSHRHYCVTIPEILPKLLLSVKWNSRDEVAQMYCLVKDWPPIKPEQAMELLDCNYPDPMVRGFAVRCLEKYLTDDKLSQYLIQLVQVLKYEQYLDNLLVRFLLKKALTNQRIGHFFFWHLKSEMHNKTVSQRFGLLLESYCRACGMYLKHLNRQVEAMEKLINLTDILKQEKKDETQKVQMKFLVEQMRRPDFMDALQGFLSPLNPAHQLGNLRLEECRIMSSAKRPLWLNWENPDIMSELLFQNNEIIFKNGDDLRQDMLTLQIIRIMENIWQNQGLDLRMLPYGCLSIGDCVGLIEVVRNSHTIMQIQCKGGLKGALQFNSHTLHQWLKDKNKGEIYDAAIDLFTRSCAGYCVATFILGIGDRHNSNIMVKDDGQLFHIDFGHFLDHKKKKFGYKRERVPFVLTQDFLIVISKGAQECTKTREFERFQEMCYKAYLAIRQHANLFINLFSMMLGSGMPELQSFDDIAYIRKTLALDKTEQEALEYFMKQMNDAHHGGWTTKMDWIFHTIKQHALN

[7] = target: PI 4-kinase beta (Homo sapiens, UniProt Q9UBF8); assay: Kinase Glo Luminescent Kinase Assay (Kglo), assay D; type: biochemical; conditions: read-out: Assay D PI4Kβ IC50
Chain of PI 4-kinase beta (Q9UBF8 whole entry): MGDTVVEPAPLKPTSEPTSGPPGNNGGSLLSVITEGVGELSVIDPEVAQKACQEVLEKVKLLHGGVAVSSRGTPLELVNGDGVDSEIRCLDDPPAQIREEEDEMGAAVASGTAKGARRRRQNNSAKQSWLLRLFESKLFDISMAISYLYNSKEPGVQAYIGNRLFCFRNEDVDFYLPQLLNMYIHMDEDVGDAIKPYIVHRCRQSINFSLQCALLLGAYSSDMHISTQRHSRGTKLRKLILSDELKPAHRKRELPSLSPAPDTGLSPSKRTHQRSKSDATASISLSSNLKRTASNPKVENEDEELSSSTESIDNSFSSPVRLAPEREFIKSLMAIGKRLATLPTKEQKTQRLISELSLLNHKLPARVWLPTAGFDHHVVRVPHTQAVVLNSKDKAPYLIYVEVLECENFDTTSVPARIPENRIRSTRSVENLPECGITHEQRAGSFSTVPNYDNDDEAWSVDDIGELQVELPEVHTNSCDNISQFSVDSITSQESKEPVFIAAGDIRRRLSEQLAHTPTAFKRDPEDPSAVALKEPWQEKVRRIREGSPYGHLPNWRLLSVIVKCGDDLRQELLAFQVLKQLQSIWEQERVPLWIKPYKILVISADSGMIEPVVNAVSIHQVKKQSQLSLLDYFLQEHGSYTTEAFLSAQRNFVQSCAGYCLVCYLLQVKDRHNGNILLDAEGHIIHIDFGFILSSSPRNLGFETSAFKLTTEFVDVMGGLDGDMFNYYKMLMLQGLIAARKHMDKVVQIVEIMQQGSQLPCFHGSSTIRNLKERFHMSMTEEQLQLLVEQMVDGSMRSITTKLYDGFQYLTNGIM

[8] = target: T1, PI 3-kinase gamma; assay: Cellular U937 AKT assay K2 (HTRF); type: cell-based; conditions: U937 cells, K2 format; read-out: Assay K2 PI3Kγ IC50
Protocol: In assays K1 and K2, the compounds were tested for their ability to inhibit the production of phosphorylated AKT (Protein Kinase B) generated in a PI 3-kinase gamma isoform-dependent process in a U937 human cell line.
Cellular U937 AKT Assay for PI 3-Kinase Gamma (K2)
U937 cells are split every 3-4 days: 5×10^6 cells/flask (175 cm^2) in 40 ml.
Semi-automated preparation of cell lysates: Cells were resuspended in HBSS, seeded (200′000 cells/well/60 μl) into a 384-well plate and incubated in a humidified 37° C., 5% CO2 incubator for 1.5 hours. The compounds were diluted with HBSS and 40 μl were added to the starved cells (except for wells 24 I-P). […] The cells were then incubated for 30 minutes at 37° C. and 5% CO2. Stimulation occurred during 3 minutes by addition of 20 μl MIP1α (final 10 ng/ml, diluted in HBSS) in the incubator. Wells 24 A-H were only stimulated with HBSS.
The stimulation was then stopped by putting the cell plates on ice (filled with cold water). The cells were then centrifuged at 1200 rpm and 4° C. for 3 minutes.
80 μl of supernatant was removed. The cells were again centrifuged at 1200 rpm and 4° C. for 3 minutes. The supernatant was then removed by turning plates upside down and 30 μl of lysis buffer were added. The plate was incubated at room temperature for 30 minutes under shaking. 16 μl were then transferred to a ProxiPlate Plus 384-well. 4 μl of the master mix (each conjugate diluted 1:20 with detection reagent) were added to each well and the plate was kept in the dark at room temperature for 4 hours.

[9] = target: Vps34 (Homo sapiens, UniProt Q8NEB9); assay: Kinase Glo Luminescent Kinase Assay (Kglo), assay C; type: biochemical; conditions: read-out: Assay C VPS34 IC50
Chain of Vps34 (Q8NEB9 whole entry, species assumed): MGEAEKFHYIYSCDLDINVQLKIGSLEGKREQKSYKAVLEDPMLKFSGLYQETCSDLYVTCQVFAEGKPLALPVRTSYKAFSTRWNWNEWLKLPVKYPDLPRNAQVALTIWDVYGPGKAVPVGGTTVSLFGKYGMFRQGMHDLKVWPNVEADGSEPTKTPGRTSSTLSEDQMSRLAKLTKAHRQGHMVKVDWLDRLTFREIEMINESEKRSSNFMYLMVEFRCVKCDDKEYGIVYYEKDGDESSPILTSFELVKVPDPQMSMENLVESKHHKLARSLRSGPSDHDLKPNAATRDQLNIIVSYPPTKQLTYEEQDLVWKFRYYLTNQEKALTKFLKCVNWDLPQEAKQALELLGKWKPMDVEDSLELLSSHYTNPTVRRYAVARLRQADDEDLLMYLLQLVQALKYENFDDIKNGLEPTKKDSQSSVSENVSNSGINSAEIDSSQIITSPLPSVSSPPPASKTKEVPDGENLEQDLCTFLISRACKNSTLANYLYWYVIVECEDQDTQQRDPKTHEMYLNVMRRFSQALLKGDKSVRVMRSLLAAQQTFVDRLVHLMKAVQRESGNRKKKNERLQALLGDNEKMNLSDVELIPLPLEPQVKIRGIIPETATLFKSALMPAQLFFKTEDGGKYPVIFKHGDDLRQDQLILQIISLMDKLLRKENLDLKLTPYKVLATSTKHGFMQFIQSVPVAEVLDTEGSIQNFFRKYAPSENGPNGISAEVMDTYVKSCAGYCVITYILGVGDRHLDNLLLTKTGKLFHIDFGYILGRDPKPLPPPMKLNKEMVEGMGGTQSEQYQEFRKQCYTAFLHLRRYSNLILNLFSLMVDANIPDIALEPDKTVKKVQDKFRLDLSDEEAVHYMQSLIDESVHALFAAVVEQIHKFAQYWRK

[10] = test system: IL-8-induced neutrophil shape change in human whole blood; assay: Whole blood neutrophil shape change assay (L); type: cell-based; conditions: IL-8, human whole blood, read-out: Assay L WBSC IC50
[11] = target: T4, PI 3-kinase beta (Homo sapiens, UniProt P42338); assay: Kinase Glo Luminescent Kinase Assay (Kglo), assay B; type: biochemical; conditions: read-out: Assay B PI3Kβ IC50
[12] = target: T4, PI 3-kinase beta; assay: Cellular assay I1, p-Akt (S473) in Rat-1 cells, Surefire format; type: cell-based; conditions: non-asterisked data: version I1 (Surefire format), Rat-1 cells; read-out: Assay I PI3Kβ IC50
[13] = target: T3, PI 3-kinase alpha; assay: Cellular assay H1, p-Akt (S473) in Rat-1 cells, Surefire format; type: cell-based; conditions: non-asterisked data: version H1 (Surefire format), Rat-1 cells; read-out: Assay H PI3Kα IC50
Target sequence in this assay (P42336 whole entry): as the sequence (P42336 whole entry) above
Target sequence in this assay (Q63787 whole entry partner): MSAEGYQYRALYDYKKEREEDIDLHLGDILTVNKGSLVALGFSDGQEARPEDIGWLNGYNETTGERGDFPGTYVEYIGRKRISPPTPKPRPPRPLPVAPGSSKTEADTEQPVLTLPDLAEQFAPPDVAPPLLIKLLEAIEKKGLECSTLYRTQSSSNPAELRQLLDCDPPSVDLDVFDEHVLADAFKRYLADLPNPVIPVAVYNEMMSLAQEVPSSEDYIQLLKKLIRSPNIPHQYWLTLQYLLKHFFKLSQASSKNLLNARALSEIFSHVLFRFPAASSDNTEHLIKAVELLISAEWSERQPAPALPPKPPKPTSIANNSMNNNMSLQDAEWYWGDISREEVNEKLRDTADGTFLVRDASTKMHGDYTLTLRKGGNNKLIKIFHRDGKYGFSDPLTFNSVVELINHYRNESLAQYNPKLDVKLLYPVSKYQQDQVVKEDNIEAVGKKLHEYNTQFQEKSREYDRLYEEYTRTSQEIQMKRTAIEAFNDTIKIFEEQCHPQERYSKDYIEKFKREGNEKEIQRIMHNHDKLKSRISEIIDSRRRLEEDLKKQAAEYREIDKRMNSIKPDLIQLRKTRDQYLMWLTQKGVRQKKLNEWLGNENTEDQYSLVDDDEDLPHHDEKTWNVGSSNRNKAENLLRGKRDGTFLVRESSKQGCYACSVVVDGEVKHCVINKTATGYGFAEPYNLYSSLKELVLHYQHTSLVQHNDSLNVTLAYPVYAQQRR

[14] = target: T2, PI 3-kinase delta; assay: Cellular assay J1, p-Akt (S473) in Rat-1 cells, Surefire format; type: cell-based; conditions: non-asterisked data: version J1 (Surefire format), Rat-1 cells; read-out: Assay J PI3Kδ IC50

T1 sequence (P48736 whole entry): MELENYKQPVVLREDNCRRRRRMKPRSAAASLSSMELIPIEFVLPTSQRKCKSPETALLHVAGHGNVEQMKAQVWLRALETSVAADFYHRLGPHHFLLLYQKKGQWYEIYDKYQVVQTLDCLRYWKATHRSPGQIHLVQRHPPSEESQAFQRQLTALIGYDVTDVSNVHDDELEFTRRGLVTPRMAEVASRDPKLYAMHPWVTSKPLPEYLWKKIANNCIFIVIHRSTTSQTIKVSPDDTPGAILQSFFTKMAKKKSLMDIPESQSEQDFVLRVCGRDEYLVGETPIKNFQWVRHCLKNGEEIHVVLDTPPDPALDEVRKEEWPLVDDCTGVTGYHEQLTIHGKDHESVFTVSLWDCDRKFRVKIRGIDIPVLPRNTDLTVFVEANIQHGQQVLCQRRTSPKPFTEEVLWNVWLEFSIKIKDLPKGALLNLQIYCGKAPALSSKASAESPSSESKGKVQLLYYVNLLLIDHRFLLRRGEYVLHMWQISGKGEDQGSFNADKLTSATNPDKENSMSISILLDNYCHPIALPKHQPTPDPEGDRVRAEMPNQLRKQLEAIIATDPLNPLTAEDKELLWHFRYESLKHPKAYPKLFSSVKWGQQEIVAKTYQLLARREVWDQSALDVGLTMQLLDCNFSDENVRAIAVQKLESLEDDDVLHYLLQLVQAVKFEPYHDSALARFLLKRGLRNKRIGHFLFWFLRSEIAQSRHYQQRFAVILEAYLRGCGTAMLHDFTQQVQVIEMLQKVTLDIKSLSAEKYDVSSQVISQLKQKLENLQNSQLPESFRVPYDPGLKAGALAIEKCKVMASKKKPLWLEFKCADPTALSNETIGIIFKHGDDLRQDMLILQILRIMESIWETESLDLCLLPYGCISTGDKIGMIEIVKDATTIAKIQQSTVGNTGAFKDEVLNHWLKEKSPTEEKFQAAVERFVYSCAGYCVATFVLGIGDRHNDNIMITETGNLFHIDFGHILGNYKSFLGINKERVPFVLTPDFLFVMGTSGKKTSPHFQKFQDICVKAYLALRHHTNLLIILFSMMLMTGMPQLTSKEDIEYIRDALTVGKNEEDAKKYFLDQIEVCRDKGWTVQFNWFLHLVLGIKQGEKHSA

| SMILES | Assay M RLM CI(int) [1] [µL/min/mg] | IC50 [2] [nM] | IC50 [3] [nM] | IC50 [4] [µM] | IC50 [5] [nM] | IC50 [6] [nM] | IC50 [7] [µM] | IC50 [8] [nM] | IC50 [9] [µM] | IC50 ([10]; Homo sapiens, Neutrophil) [nM] | IC50 [11] [nM] | IC50 [12] [nM] | IC50 [13] [µM] | IC50 [14] [nM] | IC50 [10] [nM] |
| --- | --- | --- | --- | --- | --- | --- | --- | --- | --- | --- | --- | --- | --- | --- | --- |
| Cc1ccc(S(=O)(=O)NCCC2(O)CCCCC2)cc1-c1cnc(N)c(-n2cncn2)n1 [Example 127.37] | – | 230 | 34 | > 10 | 1500 | 650 | 8 | 408 | > 10 | 6220 | 1400 | – | – | – | – |
| Cc1ccc(S(=O)(=O)N2CCC(F)C2)cc1-c1cnc(N)c(-n2cncn2)n1 (stereo not drawn) [Example 127.2] | 375 | 850 | 73 | 9.4 | 850 | 320 | 1.7 | 84 | > 10 | 3560 | 1000 | – | – | – | – |
| Cc1ccc(S(=O)(=O)N2CC(C)(O)C2)cc1-c1cnc(N)c(-n2cncn2)n1 [Example 127.46] | 34 | 708 | 73 | > 9.1 | 720 | 1300 | 6.9 | 546 | > 9.1 | 3770 | > 9100 | – | – | – | – |
| Cc1ccc(S(=O)(=O)N2CC(CO)C2)cc1-c1cnc(N)c(-n2cncn2)n1 [Example 127.45] | 26 | – | 60 | > 9.1 | 1500 | 420 | 3.4 | 323 | > 9.1 | 2640 | 6200 | 9050 | 6.11 | 7270 | – |
| Cc1ccc(S(=O)(=O)N2CC(F)C2)cc1-c1cnc(N)c(-n2cncn2)n1 [Example 127.5] | 72 | – | 100 | 1.8 | 3900 | 400 | > 10 | 419 | > 10 | 9680 | 3100 | – | – | – | – |
| Cc1ccc(S(=O)(=O)NCC[C@@H](O)C(F)(F)F)cc1-c1cnc(N)c(-c2cn(C)nc2C)n1 (single isomer, unassigned) [Example 52b, (R)-3-(5-Amino-6-(1,3-dimethyl-1H-pyrazol-4-yl)pyrazin-2-yl)-4-methyl-N-(4,4,4-trifluoro-3-hydroxybutyl)benzenesulfonamide or (S)-3-(5-Amino-6-(1,3-dimethyl-1H-pyrazol-4-yl)pyrazin-2-yl)-4-methyl-N-(4,4,4-trifluoro-3-hydroxybutyl)benzenesulfonamide] | 43 | 60 | 26 | – | – | 230 | 4.2 | 337 | > 10 | – | – | – | – | – | 550 |

More lines, main results first:

| Assay M RLM CI(int) [1] [µL/min/mg] | IC50 [2] [nM] | IC50 [3] [nM] | IC50 [4] [µM] | IC50 [5] [nM] | IC50 [6] [nM] | IC50 [7] [µM] | IC50 [8] [nM] | IC50 [9] [µM] | IC50 ([10]; Homo sapiens, Neutrophil) [nM] | IC50 [11] [nM] | IC50 [12] [nM] | IC50 [13] [µM] | IC50 [14] [nM] | SMILES | IC50 [10] [nM] |
| --- | --- | --- | --- | --- | --- | --- | --- | --- | --- | --- | --- | --- | --- | --- | --- |
| 73 | 41 | 21 | 7.9 | 120 | 90 | > 10 | 65 | > 10 | 497 | 1200 | – | – | – | Cc1ccc(S(=O)(=O)NCCC(C)(C)O)cc1-c1cnc(N)c(-c2cnn(C)n2)n1 [Example 85, 3-(5-Amino-6-(2-methyl-2H-1,2,3-triazol-4-yl)pyrazin-2-yl)-N-(3-hydroxy-3-methylbutyl)-4-methylbenzenesulfonamide] | – |
| 32 | – | 10 | – | 150 | 20 | 1.9 | 30 | 3.9 | 662 | 340 | – | – | – | Cc1ncc(-c2nc(-c3cc(S(=O)(=O)NCC4(O)CCOCC4)ccc3C)cnc2N)s1 [Example 45.10, 3-(5-Amino-6-(2-methylthiazol-5-yl)pyrazin-2-yl)-N-((4-hydroxytetrahydro-2H-pyran-4-yl)methyl)-4-methylbenzenesulfonamide] | – |
| 43 | 12 | 5 | – | 130 | 40 | 1.2 | 26 | 1.6 | 79 | 290 | – | – | – | Cc1ncc(-c2nc(-c3cc(S(=O)(=O)NCC4(O)COC4)ccc3C)cnc2N)s1 [Example 45.11, 3-(5-Amino-6-(2-methylthiazol-5-yl)pyrazin-2-yl)-N-((3-hydroxyoxetan-3-yl)methyl)-4-methylbenzenesulfonamide] | – |
| 20 | – | 190 | – | 300 | 190 | > 10 | 193 | > 10 | 2180 | 7700 | > 10000 | > 10 | > 10000 | Cc1ccc(S(=O)(=O)NC[C@@H]2COCCN2)cc1-c1cnc(N)c(-c2cn(C)nc2C)n1 [Example 128.6, (R)-3-(5-Amino-6-(1,3-dimethyl-1H-pyrazol-4-yl)pyrazin-2-yl)-4-methyl-N-(morpholin-3-ylmethyl)benzenesulfonamide] | – |
| 134 | 104 | 45 | – | 500 | 100 | > 10 | 280 | > 10 | – | 1700 | 1550 | 1.51 | 780 | Cc1ccc(S(=O)(=O)NCC2(C)CCCO2)cc1-c1cnc(N)c(-c2cn(C)nc2C)n1 (stereo not drawn) [Example 128.4, 3-(5-Amino-6-(1,3-dimethyl-1H-pyrazol-4-yl)pyrazin-2-yl)-4-methyl-N-((2-methyltetrahydrofuran-2-yl)methyl)benzenesulfonamide] | – |
| 314 | 39 | 10 | – | 20 | 110 | 9.4 | 24 | 7.7 | – | 250 | 980 | > 3 | < 3 | CCN1CCC[C@@H]1CNS(=O)(=O)c1ccc(C)c(-c2cnc(N)c(-c3cnc(C)s3)n2)c1 [Example 41, (R)-3-(5-Amino-6-(2-methylthiazol-5-yl)pyrazin-2-yl)-N-((1-ethylpyrrolidin-2-yl)methyl)-4-methylbenzenesulfonamide] | – |
| 24 | 145 | 26 | > 10 | 450 | 220 | > 10 | 331 | > 10 | 730 | 820 | – | – | – | Cc1ccc(S(=O)(=O)NCC(C)(C)O)cc1-c1cnc(N)c(-c2cnn(C)c2C)n1 [Example 46, 3-(5-Amino-6-(1,5-dimethyl-1H-pyrazol-4-yl)pyrazin-2-yl)-N-(2-hydroxy-2-methylpropyl)-4-methylbenzenesulfonamide] | – |
| 160 | 14 | 7 | – | 30 | 30 | 3.5 | 18 | 4.65 | – | 660 | 790 | 0.13 | 160 | Cc1ncc(-c2nc(-c3cc(S(=O)(=O)NC[C@H]4CCOC4)ccc3C)cnc2N)s1 [Example 42, (R)-3-(5-Amino-6-(2-methylthiazol-5-yl)pyrazin-2-yl)-4-methyl-N-((tetrahydrofuran-3-yl)methyl)benzenesulfonamide] | – |
| 99 | 804 | 58 | 8.7 | 910 | 1200 | > 9.1 | 1600 | > 9.1 | – | > 9100 | > 10000 | 4.29 | 4970 | Cc1cc(-c2nc(-c3cc(S(=O)(=O)NC[C@H]4CCCO4)ccc3C)cnc2N)ccn1 [Example 129.12, (R)-3-(5-amino-6-(2-methylpyridin-4-yl)pyrazin-2-yl)-4-methyl-N-((tetrahydrofuran-2-yl)methyl)benzenesulfonamide] | – |
